Our source for the inhibition values is patent publication US9187471B2, “Pyrido [4,3-b] indole and pyrido [3,4-b] indole derivatives and methods of use” (Medivation Technologies, Inc., priority 2010, dated 2015).

A word on the inhibition: it is the drop in the measured response relative to a control, in per cent.

Molecules are shown by their SMILES.

Assay [1] deals with T1, human recombinant serotonin (5-Hydroxytryptamine) 5-HT2C receptor (Homo sapiens, UniProt P28335).
T1 construct: expressed in transfected cells; host or cells: CHO-K1
T1 sequence (P28335 33-458): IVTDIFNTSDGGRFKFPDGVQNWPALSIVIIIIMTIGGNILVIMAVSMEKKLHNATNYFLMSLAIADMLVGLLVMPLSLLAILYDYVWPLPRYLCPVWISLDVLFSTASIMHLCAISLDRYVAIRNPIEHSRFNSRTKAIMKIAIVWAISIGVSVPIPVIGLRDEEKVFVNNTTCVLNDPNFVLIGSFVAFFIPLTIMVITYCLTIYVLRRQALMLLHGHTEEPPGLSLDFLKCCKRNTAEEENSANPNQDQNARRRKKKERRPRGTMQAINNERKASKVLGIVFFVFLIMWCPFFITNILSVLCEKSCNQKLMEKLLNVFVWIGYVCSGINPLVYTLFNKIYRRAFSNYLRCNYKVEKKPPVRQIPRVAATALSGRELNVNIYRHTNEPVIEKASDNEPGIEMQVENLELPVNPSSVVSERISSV
The assay can be described thus: Serotonin 5-HT2C radioligand binding ([3H]Mesulergine). The conditions noted are these: compound at 0.1 μM; read-out: Inhibition of ligand binding, Serotonin 5-HT2C (percent inhibition of specific binding). As for the experimental part:
Compounds of the invention were incubated with 1 nM [^3H]Mesulergine for 60 min at 25° C. Non-specific binding was estimated in the presence of 1 μM Mianserin. Receptor proteins were filtered and washed, the filters were then counted to determine [^3H]Mesulergine specifically bound.

The target of assay [2] is T2, human recombinant adrenergic α2C receptor (Homo sapiens, UniProt P18825).
T2 construct: expressed in transfected cells; host or cells: insect Sf9 cells
T2 sequence (P18825 1-462): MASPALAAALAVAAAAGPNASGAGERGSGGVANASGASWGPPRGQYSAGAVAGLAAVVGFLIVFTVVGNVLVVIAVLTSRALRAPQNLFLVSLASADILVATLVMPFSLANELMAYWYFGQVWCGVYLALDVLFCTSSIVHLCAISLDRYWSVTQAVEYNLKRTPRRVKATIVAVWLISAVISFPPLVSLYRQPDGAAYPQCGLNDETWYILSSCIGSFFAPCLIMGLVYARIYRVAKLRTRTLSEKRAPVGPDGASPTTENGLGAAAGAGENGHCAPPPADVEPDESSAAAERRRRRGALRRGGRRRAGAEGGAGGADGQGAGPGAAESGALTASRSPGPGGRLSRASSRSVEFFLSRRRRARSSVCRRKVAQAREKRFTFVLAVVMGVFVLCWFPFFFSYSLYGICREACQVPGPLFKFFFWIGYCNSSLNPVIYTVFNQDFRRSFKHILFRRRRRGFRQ
Nature of the assay: Adrenergic α2C radioligand binding ([3H]MK-912). The conditions noted are these: read-out: Adrenergic (0.1 μM) a2C, percent inhibition of specific binding; compound at 0.1 μM; 1 nM [3H]MK-912. The essentials:
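Membranes from Sf9 cells expressing the human receptor, in 50 mM Tris-HCl pH 7.4 with 12.5 mM MgCl2 and 2 mM EDTA, incubated with compound and 1 nM [3H]MK-912 for 60 min at 25 °C. Non-specific binding defined with 10 μM WB-4101. Filter-bound radioactivity counted; percent inhibition of specific binding reported.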

In assay [3] the target is T3, human recombinant serotonin (5-Hydroxytryptamine) 5-HT5A receptor (Homo sapiens, UniProt P47898).
T3 construct: expressed in transfected cells; host or cells: CHO-K1
T3 sequence (P47898 whole entry): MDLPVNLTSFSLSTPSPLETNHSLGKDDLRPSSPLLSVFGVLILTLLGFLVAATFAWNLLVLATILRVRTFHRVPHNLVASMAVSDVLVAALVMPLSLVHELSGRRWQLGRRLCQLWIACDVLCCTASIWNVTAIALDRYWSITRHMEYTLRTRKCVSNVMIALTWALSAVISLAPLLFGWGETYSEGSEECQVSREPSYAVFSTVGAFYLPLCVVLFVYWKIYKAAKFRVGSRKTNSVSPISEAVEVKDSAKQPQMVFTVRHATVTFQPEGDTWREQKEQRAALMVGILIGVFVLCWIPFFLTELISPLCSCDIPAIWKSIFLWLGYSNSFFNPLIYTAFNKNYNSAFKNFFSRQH
The assay can be described thus: Serotonin 5-HT5A radioligand binding ([3H]LSD). Particulars: compound at 0.1 μM; read-out: Inhibition of ligand binding, Serotonin 5-HT5A (percent inhibition of specific binding). Here is the method:
Compounds of the invention were incubated with 1.7 nM [^3H]Lysergic acid diethylamide (LSD) for 60 min at 37° C. […] Receptor proteins were filtered and washed, the filters were counted to determine [^3H]LSD specifically bound.

The target in assay [4] is T4, human recombinant serotonin (5-Hydroxytryptamine) 5-HT7 receptor (Homo sapiens, UniProt P34969).
T4 construct: expressed in transfected cells; host or cells: CHO
T4 sequence (P34969 whole entry): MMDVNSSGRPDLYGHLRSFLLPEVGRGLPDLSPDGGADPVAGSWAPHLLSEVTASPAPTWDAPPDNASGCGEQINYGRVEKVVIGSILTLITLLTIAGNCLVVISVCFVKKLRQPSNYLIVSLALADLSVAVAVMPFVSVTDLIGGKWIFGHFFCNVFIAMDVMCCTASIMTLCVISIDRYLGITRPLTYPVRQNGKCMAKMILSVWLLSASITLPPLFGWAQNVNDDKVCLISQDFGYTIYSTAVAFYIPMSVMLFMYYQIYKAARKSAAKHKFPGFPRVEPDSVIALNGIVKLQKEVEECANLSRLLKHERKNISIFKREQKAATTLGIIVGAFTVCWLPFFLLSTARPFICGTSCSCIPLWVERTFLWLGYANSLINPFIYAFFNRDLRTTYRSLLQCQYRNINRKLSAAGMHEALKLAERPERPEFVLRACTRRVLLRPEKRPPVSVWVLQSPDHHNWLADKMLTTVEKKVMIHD
The assay can be described thus: Serotonin 5-HT7 radioligand binding ([3H]LSD). Particulars: compound at 0.1 μM; read-out: Inhibition of ligand binding, Serotonin 5-HT7 (percent inhibition of specific binding). Here is the method: Lysergic acid diethylamide (LSD) for 120 min. at 25° C. […] Receptor proteins were filtered and washed, the filters were then counted to determine [^3H]LSD specifically bound.

Assay [5] concerns the target T5, rat adrenergic α1A receptor (Rattus norvegicus, UniProt P43140).
T5 construct: rat adrenergic α1A receptor obtained from Wistar Rat submaxillary glands; from tissue; host or cells: Wistar rat submaxillary glands
T5 sequence (P43140 1-466): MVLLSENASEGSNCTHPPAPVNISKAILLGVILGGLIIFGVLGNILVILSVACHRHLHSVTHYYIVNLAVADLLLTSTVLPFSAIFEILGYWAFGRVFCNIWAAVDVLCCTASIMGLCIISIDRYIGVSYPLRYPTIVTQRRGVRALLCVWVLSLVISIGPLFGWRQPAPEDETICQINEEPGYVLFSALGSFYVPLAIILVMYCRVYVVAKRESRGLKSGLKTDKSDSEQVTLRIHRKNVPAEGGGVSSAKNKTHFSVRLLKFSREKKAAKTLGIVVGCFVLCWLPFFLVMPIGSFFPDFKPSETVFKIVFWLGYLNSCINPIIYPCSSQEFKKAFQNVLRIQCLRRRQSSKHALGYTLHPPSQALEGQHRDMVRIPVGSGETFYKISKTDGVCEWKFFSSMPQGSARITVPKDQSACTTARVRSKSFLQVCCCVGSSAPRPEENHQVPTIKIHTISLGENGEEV
Nature of the assay: Adrenergic α1A radioligand binding ([3H]Prazosin). Particulars: read-out: Adrenergic (0.1 μM) a1A, percent inhibition of specific binding; compound at 0.1 μM; 0.25 nM [3H]Prazosin. The essentials: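 Wistar rat submaxillary gland receptor in 50 mM Tris-HCl pH 7.4 with 0.5 mM EDTA, incubated with compound and 0.25 nM [3H]Prazosin for 60 min at 25 °C.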

Regarding `Cc1ccc2c(c1)c1c(n2-c2cccc3ccncc23)CCN(C)C1` [Compound 58, 5-(isoquinolin-8-yl)-2,8-dimethyl-2,3,4,5-tetrahydro-1H-pyrido[4,3-b]indole], the inhibition at 0.1 µM was 81% in assay [1]; -1% in assay [2]; 33% in assay [3]; 69% in assay [4]; 3% in assay [5].

In the case of `Cc1ccc2c(c1)c1c(n2-c2cccc(-c3ccc(F)cc3)c2)CCN(C)C1` [Compound 61, 5-(4′-fluorobiphenyl-3-yl)-2,8-dimethyl-2,3,4,5-tetrahydro-1H-pyrido[4,3-b]indole], the inhibition at 0.1 µM in assay [1] is 81%; in assay [2] it was 8%; in assay [3] it was 24%; in assay [4], 48%; in assay [5], -5%.

Turning to `Cc1ccc2c(c1)c1c(n2-c2ccc(-c3c(C)noc3C)cn2)CCN(C)C1` [Compound No. 137, 4-(6-(2,8-dimethyl-3,4-dihydro-1H-pyrido[4,3-b]indol-5(2H)-yl)pyridin-3-yl)-3,5-dimethylisoxazole], the inhibition at 0.1 µM is 75% in assay [1]; -1% in assay [2]; 31% in assay [3]; 40% in assay [4]; 17% in assay [5].

Turning to `Cc1ccc2c(c1)c1c(n2-c2ccc(-c3ccc(C)nc3)cn2)CCN(C)C1` [Compound No. 156, 2,8-dimethyl-5-(6′-methyl-3,3′-bipyridin-6-yl)-2,3,4,5-tetrahydro-1H-pyrido[4,3-b]indole], the inhibition at 0.1 µM in assay [1] was 96%; in assay [2] it was -13%; in assay [3], 41%; in assay [4], 28%; in assay [5] it was 39%.

As to `Cc1ccc2c(c1)c1c(n2-c2cscc2-c2cnc(N(C)C)nc2)CCN(C)C1` [Compound 40], the inhibition at 0.1 µM is 35% in assay [1]; -17% in assay [2]; 76% in assay [3]; 49% in assay [4]; 43% in assay [5].

With `Cc1ccc2c(c1)c1c(n2-c2cccc(-c3ccc4[nH]cnc4c3)c2)CCN(C)C1` [Compound 54, 5-(3-(1H-benzo[d]imidazol-5-yl)phenyl)-2,8-dimethyl-2,3,4,5-tetrahydro-1H-pyrido[4,3-b]indole], the inhibition at 0.1 µM in assay [1] is 21%; in assay [2], 12%; in assay [3], 33%; in assay [4], 26%; in assay [5] it was -7%.
